Data from US6417174B1, “Inhibitors of β-lactamases and uses therefor” (Northwestern University, priority 1997, dated 2002).
Where two headings read alike, the source gives them in different places.

Columns and labels:
[1] = target: T1, TEM-1 β-lactamase from E. coli (Escherichia coli, UniProt P62593); assay: Inhibition of TEM-1 β-lactamase, spectrophotometric assay (FAP substrate); type: biochemical
T1 construct: gift: Natalie Strynadka, University of Alberta

[2] = target: AmpC β-lactamase from E. coli (Escherichia coli, UniProt P00811); assay: biochemical; type: biochemical
[3] = system: β-lactamase derepressed strain of Enterobacter cloacae (Ent-Der); assay: microbe, parasite or virus in culture; type: cell-based; details: for MIC of ceftazidime plus inhibitor: Table 3A, proportion 4/1, given as CAZ/inhibitor; for MIC of ceftazidime plus inhibitor / MIC of inhibitor used alone without ceftazidime: Ent. Der.; for MIC of inhibitor used alone without ceftazidime: Table 3B; as to MIC of ceftazidime plus inhibitor: values in µg/ml
Procedure: (§1) After incubation, the growth of the cells was visually inspected. The minimum inhibitory concentration (MIC) is the lowest concentration where there no cell growth was observed.
(§2) The following strains were used: Enterobacter cloacae cell line with derepressed β-lactamase production (Ent-Der), and Escherichia coli RYC1000 (araD139 D lacU169 rpsL D rib7 thiA gyrA recA56) cell lines, harboring the plasmid pBGS19 (with no β-lactamase), or the β-lactamase containing plasmids pBGAmpC (AmpC β-lactamase from E. coli; Eco-AmpC), or pBGAmpC-MHN (AmpC β-lactamase from Enterobacter cloacae; Eco-AmpCEnt). […] TEM-10 and TEM-24 differ from TEM-1 due to the following point substitutions: TEM-10 (R164S, E240K); TEM-24 (L102K, L162S, S235T, A237K). TEM-10 and TEM-24 also differ from TEM-1 in being extended spectrum enzymes (i.e., they react with a greater range of substrates than TEM-1). Also tested were clinical isolates of Pseudomonas aeruginosa. All bacterial strains and plasmids are available from Jesus Blazquez and Fernando Baquero, Servicio de Microbiologia, Hospital Ramon y Cajal, National Institute of Health, Madrid, Spain.
(§3) Several ratios, including 1:1, 2:1, 4:1, and 1:3, of β-lactam antibiotic (amoxicillin (AX) or ceftazidime (CAZ)) to boronic acid compound were used in the assays. Tazobactam (TAZO), a clinically used β-lactamase inibitor, was used as a positive control.

[4] = system: E. coli RYC1000 harboring pBGTEM-1 producing TEM-1 β-lactamase (EC-T1); assay: microbe, parasite or virus in culture; type: cell-based, Escherichia coli; details: EC-T1
Procedure: as §1, §2, §3

[5] = system: E. coli RYC1000 harboring pBGAmpC-E. coli producing AmpC (ECR-AmpCEc); assay: microbe, parasite or virus in culture; type: cell-based, Escherichia coli; details: ECR-AmpCEc
Procedure: as §1, §2, §3

[6] = system: E. coli RYC1000 harboring plasmid pBGAmpC-MHN (AmpC β-lactamase of Enterobacter cloacae); assay: microbe, parasite or virus in culture; type: cell-based, Escherichia coli; details: for MIC of inhibitor used alone without ceftazidime: Table 3B; as to MIC of ceftazidime plus inhibitor: values in µg/ml
Procedure: as §1, §2, §3

[7] = system: E. coli RYC1000 harboring pBGTEM-10 producing TEM-10 β-lactamase (EC-T10); assay: microbe, parasite or virus in culture; type: cell-based, Escherichia coli; details: EC-T10
Procedure: as §1, §2, §3

[8] = system: E. coli RYC1000 harboring plasmid pBGTEM-24 (TEM-24 β-lactamase); assay: microbe, parasite or virus in culture; type: cell-based, Escherichia coli; details: for MIC of ceftazidime plus inhibitor: Table 3A, proportion 4/1, given as CAZ/inhibitor; for MIC of inhibitor used alone without ceftazidime: Table 3B; as to MIC of ceftazidime plus inhibitor: values in µg/ml
Procedure: as §1, §2, §3

[9] = system: E. coli RYC1000 harboring plasmid pBGS19 (no β-lactamase); assay: microbe, parasite or virus in culture; type: cell-based, Escherichia coli; details: for MIC of ceftazidime plus inhibitor: Table 3A, proportion 4/1; for MIC of ceftazidime plus inhibitor / MIC of inhibitor used alone without ceftazidime: pBGS19; for MIC of inhibitor used alone without ceftazidime: Table 3B
Procedure: as §1, §2, §3

[10] = system: E. coli RYC1000 harboring a plasmid coding for a mutant of AmpC from Enterobacter (ECR-AmpCEnM); assay: microbe, parasite or virus in culture; type: cell-based, Escherichia coli
Procedure: as §1, §2, §3

[11] = target: Enterobacter cloacae P99 β-lactamase (Enterobacter cloacae, UniProt P05364); details: Dryjanski and Pratt, Biochemistry 34, 3561-3568 (1995); cited from earlier work
[12] = system: Ps. aeruginosa-3 (clinical isolate); assay: Antibacterial activity, wider range of bacteria; type: cell-based, Pseudomonas aeruginosa; details: Table 6
Procedure: (§4) Bacterial cell culture testing was performed and interpreted following the guidelines of the National Committee for Clinical Laboratory Standards (National Committee for Clinical Laboratory Standards. Methods for Dilution Antimicrobial Susceptibility Tests for Bacteria that Grow Aerobically. Approved Standard M7-A3. National Committee for Clinical Laboratory Standards, Villanova, Pa. 1993). After incubation, the growth of the cells was visually inspected. The minimum inhibitory concentration (MIC) is the lowest concentration where there no cell growth was observed.
(§5) All bacterial strains and plasmids are available from Jesus Blazquez and Fernando Baquero, Servicio de Microbiologia, Hospital Ramon y Cajal National Institute of Health, Madrid, Spain.

[13] = system: Ps. aeruginosa-2 (clinical isolate); assay: Antibacterial activity, wider range of bacteria; type: cell-based, Pseudomonas aeruginosa; details: Table 6
Procedure: as §4, §5

[14] = system: Citrobacter freundii derrepressed (clinical isolate); assay: Antibacterial activity, wider range of bacteria; type: cell-based; details: Table 6
Procedure: as §4, §5

[15] = system: Enterobacter cloacae derrepressed (clinical isolate); assay: Antibacterial activity, wider range of bacteria; type: cell-based; details: Table 6
Procedure: as §4, §5

[16] = system: Pseudomonas aeruginosa-1 (clinical isolate); assay: Antibacterial activity, wider range of bacteria; type: cell-based; details: Table 6
Procedure: as §4, §5

[17] = system: E. coli derrepr. (clinical isolate); assay: Antibacterial activity, wider range of bacteria; type: cell-based; details: Table 6
Procedure: as §4, §5

[18] = Table 4B, not tested above 128 μg/ml, “256” indicates no inhibition of cell growth

Sequence of AmpC β-lactamase from E. coli (P00811 20-377): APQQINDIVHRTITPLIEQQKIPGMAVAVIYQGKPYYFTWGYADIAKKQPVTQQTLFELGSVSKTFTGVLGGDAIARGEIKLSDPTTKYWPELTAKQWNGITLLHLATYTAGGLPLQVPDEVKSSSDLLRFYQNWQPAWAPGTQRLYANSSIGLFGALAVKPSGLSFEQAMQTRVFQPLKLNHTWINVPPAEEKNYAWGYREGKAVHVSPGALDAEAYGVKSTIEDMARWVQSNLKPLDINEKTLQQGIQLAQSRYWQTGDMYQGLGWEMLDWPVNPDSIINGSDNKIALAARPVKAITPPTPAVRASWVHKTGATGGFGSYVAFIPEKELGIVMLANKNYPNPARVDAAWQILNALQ
T1 sequence (P62593 24-286 limits assumed): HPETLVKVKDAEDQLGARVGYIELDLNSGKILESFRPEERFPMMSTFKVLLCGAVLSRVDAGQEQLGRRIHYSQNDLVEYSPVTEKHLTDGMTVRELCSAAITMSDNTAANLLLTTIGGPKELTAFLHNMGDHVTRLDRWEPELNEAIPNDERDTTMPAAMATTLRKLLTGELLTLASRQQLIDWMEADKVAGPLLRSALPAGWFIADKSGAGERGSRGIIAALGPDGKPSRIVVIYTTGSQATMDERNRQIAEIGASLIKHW
Sequence of Enterobacter cloacae P99 β-lactamase (P05364 21-381): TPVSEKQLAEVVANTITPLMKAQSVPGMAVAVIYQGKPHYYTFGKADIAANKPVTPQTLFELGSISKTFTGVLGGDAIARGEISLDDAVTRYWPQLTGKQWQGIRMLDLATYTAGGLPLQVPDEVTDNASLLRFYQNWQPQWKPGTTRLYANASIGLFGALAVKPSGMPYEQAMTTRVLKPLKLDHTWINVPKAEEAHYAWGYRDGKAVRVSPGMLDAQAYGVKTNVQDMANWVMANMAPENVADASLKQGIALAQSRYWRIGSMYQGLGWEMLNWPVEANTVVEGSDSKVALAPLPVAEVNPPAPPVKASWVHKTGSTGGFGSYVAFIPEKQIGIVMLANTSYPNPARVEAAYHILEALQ

OB(O)c1cc2ccccc2c2ccccc12 [9PHNB, 9-Phenanthreneboronic acid]
Ki ([1]; Tables 2A/2B, pH 7.0, 25° C., 100 μM FAP, N.I. = no inhibition observed at an inhibitor concentration of 100 μM, read-out: Ki E. coli TEM-1): 31 µM
Ki ([2]; Tables 2A/2B, pH 7.0, 25° C., 100 μM cephalothin, read-out: Ki E. coli AmpC): 12.6 µM
dissociation constant relative to MAPB (AmpC) ([2]; compared with MAPB): two to three-fold worse (higher)
MIC of ceftazidime plus inhibitor [3]: 512/128
MIC of inhibitor used alone without ceftazidime [3]: >512 µg/mL
MIC of amoxicillin plus inhibitor ([3]; Table 4A, Ent-Der., proportion 4/1): 512 µg/mL
MIC of inhibitor used alone without amoxicillin ([3]; Table 4B, Ent-Der., not tested above 128 μg/ml, “256” indicates no inhibition of cell growth): 256 µg/mL
MIC of amoxicillin plus inhibitor ([4]; Table 4A, proportion 4/1): 512 µg/mL
MIC of inhibitor used alone without amoxicillin [4, 18]: 256 µg/mL
MIC of amoxicillin plus inhibitor ([5]; Table 4A, proportion 4/1): 512 µg/mL
MIC of inhibitor used alone without amoxicillin [5, 18]: 256 µg/mL
MIC of ceftazidime plus inhibitor ([6]; Table 3A, AmpC-MHN, proportion 4/1, given as CAZ/inhibitor): 8/2
MIC of inhibitor used alone without ceftazidime ([6]; AmpC-MHN): 256 µg/mL
MIC of amoxicillin plus inhibitor ([6]; Table 4A, EC-AmpCEn, proportion 4/1): 256 µg/mL
MIC of inhibitor used alone without amoxicillin ([6]; Table 4B, ECAmpCEn, not tested above 128 μg/ml, “256” indicates no inhibition of cell growth): 256 µg/mL
MIC of amoxicillin plus inhibitor ([7]; Table 4A, proportion 4/1): 512 µg/mL
MIC of inhibitor used alone without amoxicillin [7, 18]: 256 µg/mL
MIC of ceftazidime plus inhibitor [8]: 256/64
MIC of inhibitor used alone without ceftazidime [8]: 128 µg/mL
MIC of ceftazidime plus inhibitor [9]: <0.25 µg/mL
MIC of inhibitor used alone without ceftazidime [9]: 128 µg/mL
MIC of inhibitor used alone without amoxicillin ([9]; Table 4B, EC, not tested above 128 μg/ml, “256” indicates no inhibition of cell growth): 256 µg/mL
MIC of amoxicillin plus inhibitor ([10]; Table 4A, ECR-AmpCEnM, proportion 4/1): 64 µg/mL
MIC of inhibitor used alone without amoxicillin ([10]; Table 4B, ECRAmpCEnM, not tested above 128 μg/ml, “256” indicates no inhibition of cell growth): 256 µg/mL

CN(C)c1cccc2c(S(=O)(=O)Nc3cccc(B(O)O)c3)cccc12 [NSULFB, m-(dansylamidophenyl)-boronic acid, reference compound]
Ki [1]: 88 µM
inhibitor of Enterobacter cloacae P99 β-lactamase (in words) [11]: submicromolar
Ki ([2]; Ki E. coli AmpC): 1.6 µM

OB(O)c1cc2ccccc2s1 [BZBTH2B, benzo[b]thiophene-2-boronic acid]
MIC, agent alone (CAZ alone / BZB only) [12]: 512
MIC, agent alone (CAZ alone / BZB only) [13]: 512
MIC, agent alone (CAZ alone / BZB only) [14]: 128
MIC, agent alone (CAZ alone / BZB only) [15]: 128
MIC, agent alone (CAZ alone / BZB only) [16]: 512
MIC, agent alone (CAZ alone / BZB only) [17]: 128
MIC of ceftazidime plus inhibitor [3]: 32/8
MIC of inhibitor used alone without ceftazidime [3]: 512 µg/mL
MIC of inhibitor used alone without ceftazidime ([6]; AmpC-MHN): 512 µg/mL
MIC of ceftazidime plus inhibitor [8]: 128/32
MIC of inhibitor used alone without ceftazidime [8]: 512 µg/mL
MIC of ceftazidime plus inhibitor [9]: <0.25 µg/mL
MIC of inhibitor used alone without ceftazidime [9]: 512 µg/mL
